One data set has as its system allo-HSCT mice. The conditions noted are these: cited from earlier work.
Another data set concerns steroid-refractory GVHD. The conditions noted are these: human, in vivo.

From the text for steroid-refractory GVHD: The inventors examined patient antibiotic treatment histories during the period from allo-HSCT to the onset of aGI-GVHD and looked for associations between treatment with various antibiotic classes and steroid response for GVHD (FIG. 3A). In our institution, quinolone, cephalosporine, carbapenem and intravenous vancomycin were frequently used in our cohort (FIG. 3B).
A total of 37 aGI-GVHD patients who underwent allo-HSCT during 2017 to 2019 at MD Anderson Cancer Center provided stool samples for the biorepository, and these patient stool samples were analyzed retrospectively as a discovery cohort. Acute GVHD was diagnosed by clinical and/or pathological findings and graded according to standard criteria^40. […] The inventors determined treatment response as previously reported^19: briefly, a lack of response on the basis of organ assessment after at least 3 days of high-dose systemic glucocorticoid therapy; a lack of improvement after 7 days; or treatment failure during steroid tapering or an inability to taper the dose to <0.5 mg/kg/day of methylprednisolone. […] As another cohort, a total of 16 aGI-GVHD patients who underwent allo-HSCT during 2017 to 2020 at MD Anderson Cancer Center provided stool samples collected on day 14 after allo-HSCT for the biorepository, and these patient stool samples were analyzed retrospectively. […]

As to `O=C[C@H](O)[C@@H](O)[C@H](O)CO` [xylose], in the data set with allo-HSCT mice (supplementation in meropenem-treated allogeneic mice), the GVHD severity entry is recorded as “ameliorates GVHD severity”. For the molecule `CCCCCCCCCC(=O)N[C@@H](Cc1c[nH]c2ccccc12)C(=O)N[C@H](CC(N)=O)C(=O)N[C@@H](CC(=O)O)C(=O)N[C@@H]1C(=O)NCC(=O)N[C@@H](CCCN)C(=O)N[C@@H](CC(=O)O)C(=O)N[C@H](C)C(=O)N[C@@H](CC(=O)O)C(=O)NCC(=O)N[C@H](CO)C(=O)N[C@@H]([C@H](C)CC(=O)O)C(=O)N[C@@H](CC(=O)c2ccccc2N)C(=O)O[C@@H]1C` [daptomycin], in the data set on steroid-refractory GVHD, the “Association of antibiotic exposure with steroid-refractory GVHD” value is “significantly associated with steroid-refractory GVHD”. In the case of `C[C@@H](O)[C@H]1C(=O)N2C(C(=O)O)=C(S[C@@H]3CN[C@H](C(=O)N(C)C)C3)[C@H](C)[C@H]12` [meropenem], the “Colonic GVHD severity” value in the data set with allo-HSCT mice (allo-HSCT mice treated with meropenem in drinking water compared to mice not treated) is on record as “aggravated colonic GVHD”.

Source of the values: patent US20260166097A1, “METHODS AND COMPOSITIONS CONCERNING BACTEROIDES OVATUS” (BOARD OF REGENTS, THE UNIVERSITY OF TEXAS SYSTEM, priority 2022, published 2026).
